Measured values published in PMC10747202, “Computational and Experimental Drug Repurposing of FDA-Approved Compounds Targeting the Cannabinoid Receptor CB1” (Pharmaceuticals, 2023).

Legend:
Conditions in all cases: read-out: % displacement at 10 μM
[1] = molecular target: T1, cannabinoid receptor 1 (CB1R) (Mus musculus, UniProt P47746); test: [3H]CP55, […] competition radioligand binding, mouse brain membranes, […] (weak)
T1 construct: gene Cnr1; native receptor in mouse brain membranes

[2] = molecular target: T1, cannabinoid receptor 1 (CB1R); test: [3H]CP55, […] competition radioligand binding, mouse brain membranes, […]
[3] = molecular target: T1, cannabinoid receptor 1 (CB1R); test: [3H]CP55, […] competition radioligand binding, mouse brain membranes, […] (positive control)

T1 sequence (P47746 whole entry): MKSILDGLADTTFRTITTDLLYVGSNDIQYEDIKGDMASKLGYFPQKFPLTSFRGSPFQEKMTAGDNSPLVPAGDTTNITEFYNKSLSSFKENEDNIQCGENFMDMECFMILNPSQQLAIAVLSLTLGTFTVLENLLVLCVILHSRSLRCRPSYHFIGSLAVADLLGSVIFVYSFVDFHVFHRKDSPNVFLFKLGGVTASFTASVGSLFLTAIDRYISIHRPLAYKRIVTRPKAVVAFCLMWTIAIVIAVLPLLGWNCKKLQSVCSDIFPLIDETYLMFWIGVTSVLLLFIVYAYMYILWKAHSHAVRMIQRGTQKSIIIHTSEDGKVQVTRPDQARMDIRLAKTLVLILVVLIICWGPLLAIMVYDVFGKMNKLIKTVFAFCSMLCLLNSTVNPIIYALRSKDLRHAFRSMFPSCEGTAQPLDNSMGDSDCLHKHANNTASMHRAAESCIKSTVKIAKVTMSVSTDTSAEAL

SMILES | inhibition at 10 µM [1] [%] | inhibition at 10 µM [2] [%] | also measured
Nc1nc(N)c2nc(CNc3ccc(C(=O)N[C@@H](CCC(=O)O)C(=O)O)cc3)cnc2n1 [APGA, Aminopterin] | ~30 |  | 
COc1ccc(CN=c2[nH]c(N3CCC[C@H]3CO)ncc2C(=O)NCc2ncccn2)cc1Cl [Avanafil] | ~30 |  | 
CN(Cc1cnc2nc(N)nc(N)c2n1)c1ccc(C(=O)N[C@@H](CCC(=O)O)C(=O)O)cc1 [Methotrexate] |  | ~50 | 
CCCCCCCCCCCCCCCCOP(=O)([O-])OCC[N+](C)(C)C [Miltefosine] |  | ~60 | 
O=C(c1ccc(OCCN2CCCCC2)cc1)c1c(-c2ccc(O)cc2)sc2cc(O)ccc12 [Raloxifene] |  |  | inhibition at 10 µM [3]: > 50%
Cc1nnc(C(=O)NC(C)(C)c2nc(C(=O)NCc3ccc(F)cc3)c(O)c(=O)n2C)o1 [Raltegravir] |  | ~80 | 
COC(=O)N(C)c1c(N)nc(-c2nn(Cc3ccccc3F)c3ncccc23)nc1N [Riociguat] | ~20 |  | 
CCCCC(=O)N(Cc1ccc(-c2ccccc2-c2nnn[nH]2)cc1)[C@H](C(=O)O)C(C)C [Valsartan] | ~30 |  | 
